Measured values from the NIST ThermoML archive (doi:10.1021/je900676b).

Experiment: heat capacity at constant pressure per volume
Details: 10000 kPa, Liquid, Tian-Calvet differential microcalorimeter

CCCCCC[n+]1ccn(C)c1.O=S(=O)([N-]S(=O)(=O)C(F)(F)F)C(F)(F)F
Details | heat capacity [J/K/m3]
325.02 K | 1953000
337.38 K | 1966000
349.75 K | 1972000
362.12 K | 1982000
374.48 K | 1989000
386.84 K | 2004000
399.19 K | 2009000
411.56 K | 2021000
423.91 K | 2034000
436.27 K | 2038000
448.63 K | 2053000
460.99 K | 2050000
473.35 K | 2051000
485.72 K | 2055000
498.09 K | 2067000
510.46 K | 2066000
522.84 K | 2081000
535.2 K | 2079000
547.56 K | 2096000
554.94 K | 2121000

CCCCCCCCn1cc[n+](C)c1.O=S(=O)([N-]S(=O)(=O)C(F)(F)F)C(F)(F)F
Details | heat capacity [J/K/m3]
325 K | 1950000
337.36 K | 1964000
349.71 K | 1973000
362.07 K | 1984000
374.43 K | 1993000
386.8 K | 2004000
399.16 K | 2012000
411.52 K | 2018000
423.88 K | 2029000
436.25 K | 2036000
448.61 K | 2049000
460.97 K | 2049000
473.33 K | 2053000
485.69 K | 2056000
498.06 K | 2068000
510.42 K | 2069000
522.79 K | 2084000
535.15 K | 2082000
547.51 K | 2099000
554.94 K | 2098000
